Experiments:
[1] = biological target: T1, human glucocorticoid receptor-α [GRX] isoform (Homo sapiens, UniProt P04150); assay: Radioligand binding with human glucocorticoid receptor cytosol ([3H]-dexamethasone competition); settings: GRX cytosol expressed in insect SF21 cells, [3H]-Dex ~0.9 nM, 4° C. overnight; Ki by Cheng-Prusoff, KL ~[…]; read-out: Ki (nM) GR
T1 construct: host or cells: insect SF21 cells (baculovirus)
T1 sequence (P04150 1-777): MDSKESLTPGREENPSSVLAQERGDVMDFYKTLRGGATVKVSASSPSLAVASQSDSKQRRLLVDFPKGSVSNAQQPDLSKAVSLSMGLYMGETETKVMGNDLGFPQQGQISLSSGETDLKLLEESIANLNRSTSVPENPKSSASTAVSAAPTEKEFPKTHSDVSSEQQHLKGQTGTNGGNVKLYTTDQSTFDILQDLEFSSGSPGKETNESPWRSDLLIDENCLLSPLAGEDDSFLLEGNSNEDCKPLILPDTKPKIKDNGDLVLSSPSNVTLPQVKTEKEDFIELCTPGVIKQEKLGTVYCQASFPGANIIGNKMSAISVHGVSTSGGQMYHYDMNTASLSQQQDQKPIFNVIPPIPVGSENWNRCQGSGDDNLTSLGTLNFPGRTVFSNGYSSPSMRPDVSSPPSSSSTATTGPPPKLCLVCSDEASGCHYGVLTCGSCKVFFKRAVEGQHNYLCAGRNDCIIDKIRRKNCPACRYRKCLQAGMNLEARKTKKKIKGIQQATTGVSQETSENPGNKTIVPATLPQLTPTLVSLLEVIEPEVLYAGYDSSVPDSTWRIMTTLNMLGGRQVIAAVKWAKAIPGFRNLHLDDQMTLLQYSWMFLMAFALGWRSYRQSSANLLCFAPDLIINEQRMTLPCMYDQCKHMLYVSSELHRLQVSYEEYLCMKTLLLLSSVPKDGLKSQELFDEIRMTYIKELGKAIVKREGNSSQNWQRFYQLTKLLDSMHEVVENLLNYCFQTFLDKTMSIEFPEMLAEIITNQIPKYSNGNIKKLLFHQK
Text: Briefly, cytosol preparations of human glucocorticoid receptor-α [GRX] isoform and human progesterone receptor-A [PRA] isoform were obtained from Ligand Pharmaceuticals (San Diego, Calif.). Both receptor cDNAs were cloned into baculovirus expression vectors and expressed in insect SF21 cells. [^3H]-dexamethasone (Dex, specific activity 82-86 Ci/mmole) and [^3H]-progesterone (Prog, specific activity 97-102 Ci/mmol) were purchased from Amersham Life Sciences (Arlington Heights, Ill.). Glass fiber type C multiscreen MAFC NOB plates were from Millipore (Burlington, Mass.). Hydroxyapatide Bio-Gel HTP gel was from Bio-Rad Laboratories (Hercules, Calif.). Tris(hydroxymethyl)aminomethane (Tris), ethylenediaminetetraacetic acid (EDTA), glycerol, dithiothreitol (DTT) and sodium moylybdate were obtained from Sigma Chemicals (St. Louis, Mo.). Microscint-20 scintillation fluid was from Packard Instrument (Meriden, Conn.).
Stock solutions (32 mM) of compounds were prepared in dimethylsulfoxide (DMSO), and 50× solutions of test compounds were prepared from the 32 mM solution with a 50:50 mixture of DMSO/ethanol. The 50× solution was then diluted with binding buffer that contained 10 mM Tri-HCl, 1.5 mM EDTA, 10% glycerol, 1 mM DTT, 20 mM sodium molybdate, pH 7.5 @4° C. 1% DMSO/ethanol was present in the binding assay.
For GR binding assays, [^3H]-Dex (˜35,000 dpm (˜0.9 nM)), GRX cytosol (˜35 μg protein), test compounds and binding buffer were mixed in a total volume of 200 μL and incubated at 4° C. overnight in a plate shaker. Specific binding was defined as the difference between binding of [^3H]Dex in the absence and in the presence of 1 μM unlabelled Dex.
After an overnight incubation, 50 μL of hydroxyapatite (25% weight/volume) slurry were added to each well and plates were incubated for 10 min at 0° C. in a plate shaker. Plates were suctioned with a Millipore vacuum manifold and each well was rinsed with 300 μL of ice-cold binding buffer. A 250 μL aliquot of Packard Microscint-20 was added to each well and the wells were shaken at room temperature for 20 minutes. The amount of radioactivity was determined with a Packard TopCount plate reader.
The Ki of test compounds was determined using the Cheng-Prusoff equation Ki=IC50/(1+[L*]/[KL]) where L* is the concentration of radioligand and KL is the dissociation constant of the radioligand determined from saturation analysis.

[2] = biological target: T2, human progesterone receptor-A [PRA] isoform (Homo sapiens, UniProt P06401); assay: Radioligand binding with human progesterone receptor cytosol ([3H]-progesterone competition); settings: PRA cytosol expressed in insect SF21 cells, [3H]Prog ~0.8 nM, 4° C. overnight; Ki by Cheng-Prusoff, KL ~4.5 nM; read-out: Ki (nM) PR
T2 construct: host or cells: insect SF21 cells (baculovirus)
T2 sequence (P06401 1-769 isoform P06401-2): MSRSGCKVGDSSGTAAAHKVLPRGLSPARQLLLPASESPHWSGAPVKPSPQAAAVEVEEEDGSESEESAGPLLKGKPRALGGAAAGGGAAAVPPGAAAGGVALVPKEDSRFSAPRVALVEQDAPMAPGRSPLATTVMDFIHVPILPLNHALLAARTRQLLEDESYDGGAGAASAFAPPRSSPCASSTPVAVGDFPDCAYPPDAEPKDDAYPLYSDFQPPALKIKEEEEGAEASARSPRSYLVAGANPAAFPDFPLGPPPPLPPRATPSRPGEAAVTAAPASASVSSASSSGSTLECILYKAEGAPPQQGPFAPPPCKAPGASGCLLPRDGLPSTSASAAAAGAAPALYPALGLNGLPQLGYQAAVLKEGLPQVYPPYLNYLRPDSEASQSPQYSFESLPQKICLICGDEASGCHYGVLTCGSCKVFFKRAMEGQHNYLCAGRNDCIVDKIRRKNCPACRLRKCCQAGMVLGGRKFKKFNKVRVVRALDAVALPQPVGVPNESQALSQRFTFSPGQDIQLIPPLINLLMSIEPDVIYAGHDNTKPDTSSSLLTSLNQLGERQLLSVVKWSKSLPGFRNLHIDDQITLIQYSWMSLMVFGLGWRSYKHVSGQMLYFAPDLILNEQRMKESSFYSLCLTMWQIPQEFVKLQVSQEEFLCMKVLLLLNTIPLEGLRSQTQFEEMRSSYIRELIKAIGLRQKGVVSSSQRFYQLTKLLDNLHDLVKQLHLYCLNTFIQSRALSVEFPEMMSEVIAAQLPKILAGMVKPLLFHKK

| SMILES | Ki [1] | Ki [2] |
| --- | --- | --- |
| COc1c(O)ccc2c1-c1ccc3c(c1C(CC(C)C)O2)C(C)=CC(C)(C)N3 (centres unmarked) [Example 259, 2,5-Dihydro-9-hydroxy-10-methoxy-2,2,4-trimethyl-5-(2-methylpropyl)-1H-[1]benzopyrano[3,4-f]quinoline] | 1.2 nM | 938 nM |
| C=CCCC1Oc2ccc(O)c(OC)c2-c2ccc3c(c21)C(C)=CC(C)(C)N3 (centres unmarked) [Example 261, 2,5-Dihydro-9-hydroxy-10-methoxy-2,2,4-trimethyl-5-(3-butenyl)-1H-[1]benzopyrano[3,4-f]quinoline] | 0.75 nM | 161 nM |
| COc1c(O)ccc2c1-c1ccc3c(c1C(Cc1ccccc1)O2)C(C)=CC(C)(C)N3 (centres unmarked) [Example 262, 2,5-Dihydro-9-hydroxy-10-methoxy-5-(phenylmethyl)-2,2,4-trimethyl-1H-[1]benzopyrano[3,4-f]quinoline] | 1.1 nM | 150 nM |
| COc1c(O)ccc2c1-c1ccc3c(c1[C@H](C1CCCC1)O2)C(C)=CC(C)(C)N3 [Example 264, (−)(S)5-Cyclopentyl-2,5-dihydro-9-hydroxy-10-methoxy-2,2,4-trimethyl-1H-[1]benzopyrano[3,4-f]quinoline] | 0.51 nM | 307 nM |
| C#CCC1Oc2ccc(O)c(OC)c2-c2ccc3c(c21)C(C)=CC(C)(C)N3 (centres unmarked) [Example 266, 2,5-Dihydro-9-hydroxy-10-methoxy-5-(3-propynyl)-2,2,4-trimethyl-1H-[1]benzopyrano[3,4-f]quinoline] | 0.71 nM | 102 nM |
| COc1c(O)ccc2c1-c1ccc3c(c1C(C(C)C)O2)C(C)=CC(C)(C)N3 (centres unmarked) [Example 267, 2,5-Dihydro-9-hydroxy-10-methoxy-2,2,4-trimethyl-5-(2-propyl)-1H-[1]benzopyrano[3,4-f]quinoline] | 0.79 nM | 938 nM |
| COc1ccc(C2Oc3ccc(O)c(OC)c3-c3ccc4c(c32)C(C)=CC(C)(C)N4)s1 (centres unmarked) [Example 268, 2,5-Dihydro-9-hydroxy-10-methoxy-2,2,4-trimethyl-5-(5-methoxy-2-thienyl)-1H-[1]benzopyrano[3,4-f]quinoline] | 0.84 nM | 486 nM |
| COc1c(O)ccc2c1-c1ccc3c(c1[C@H]([C@@H]1C=CCCC1)O2)C(C)=CC(C)(C)N3 [Example 272, (−)(5S,3′S)2,5-Dihydro-9-hydroxy-10-methoxy-2,2,4-trimethyl-5-(3-cyclohexenyl)-1H-[1]benzopyrano[3,4-f]quinoline] | 0.39 nM | 66.4 nM |
| COc1c(O)ccc2c1-c1ccc3c(c1[C@H]([C@H]1C=CCCC1)O2)C(C)=CC(C)(C)N3 [Example 273] | 0.56 nM | 35.8 nM |
| CCC1=C[C@@H]([C@H]2Oc3ccc(O)c(OC)c3-c3ccc4c(c32)C(C)=CC(C)(C)N4)CCC1 [Example 277] | 11.3 nM | 272 nM |
| COc1c(O)ccc2c1-c1ccc3c(c1C(C1CCCCC1)O2)C(C)=CC(C)(C)N3 (centres unmarked) [Example 278, 2,5-Dihydro-9-hydroxy-10-methoxy-2,2,4-trimethyl-5-cyclohexyl-1H-[1]benzopyrano[3,4-f]quinoline] | 1.1 nM | 533 nM |
| COc1c(O)ccc2c1-c1ccc3c(c1CO2)C(C)=CC(C)(C)N3 [Example 279, 2,5,5-Trihydro-9-hydroxy-10-methoxy-2,2,4-trimethyl-1H-[1]benzopyrano[3,4-f]quinoline] | 12.4 nM | 1900 nM |
| C=C(CO)CC1Oc2ccc(O)c(OC)c2-c2ccc3c(c21)C(C)=CC(C)(C)N3 (centres unmarked) [Example 280, 2,5-Dihydro-9-hydroxy-10-methoxy-2,2,4-trimethyl-5-(2-hydroxymethyl-3-propenyl)-1H-[1]benzopyrano[3,4-f]quinoline] | 1.6 nM | ≥ 10000 nM |
| COC(=O)CC1Oc2ccc(O)c(OC)c2-c2ccc3c(c21)C(C)=CC(C)(C)N3 (centres unmarked) [Example 281, Methyl 2-[2,5-Dihydro-9-hydroxy-10-methoxy-2,2,4-trimethyl-1H-[1]benzopyrano[3,4-f]-5-quinoline]acetate] | 0.84 nM | 526 nM |
| C/C=C\CC1Oc2ccc(O)c(OC)c2-c2ccc3c(c21)C(C)=CC(C)(C)N3 (centres unmarked) [Example 282, (Z)2,5-Dihydro-9-hydroxy-10-methoxy-2,2,4-trimethyl-5-(2-butenyl)-1H-[1]benzopyrano[3,4-f]quinoline] | 0.5 nM | 42 nM |
| COc1c(O)ccc2c1-c1ccc3c(c1C(CC=C(C)C)O2)C(C)=CC(C)(C)N3 (centres unmarked) [Example 283, 2,5-Dihydro-9-hydroxy-10-methoxy-2,2,4-trimethyl-5-(3-methyl-2-butenyl)-1H-[1]benzopyrano[3,4-f]quinoline] | 1.1 nM | 60.4 nM |
| COc1c(O)ccc2c1-c1ccc3c(c1[C@@H]([C@H]1C=CCCC1)O2)C(C)=CC(C)(C)N3 [Example 285] | 436 nM | 3760 nM |
| COc1c(O)ccc2c1-c1ccc3c(c1[C@@H]([C@@H]1C=CCC1)O2)C(C)=CC(C)(C)N3 [Example 286] | 64 nM | 3030 nM |
| COc1c(O)ccc2c1-c1ccc3c(c1[C@@H]([C@H]1C=CCC1)O2)C(C)=CC(C)(C)N3 [Example 287] | 346 nM | 3500 nM |
| C=C(C)CC1Oc2ccc(O)c(OC)c2-c2ccc3c(c21)C(C)=CC(C)(C)N3 (centres unmarked) [Example 289, 2,5-Dihydro-9-hydroxy-10-methoxy-2,2,4-trimethyl-5-(2-methyl-3-propenyl)-1H-[1]benzopyrano[3,4-f]quinoline] | 0.73 nM | 260 nM |
| C=CCC1Oc2ccc(OC)c(OC)c2-c2ccc3c(c21)C(C)=CC(C)(C)N3 (centres unmarked) [Example 290, 9,10-Dimethoxy-5-(3-propenyl)-2,2,4-trimethyl-1H-2,5-dihydro-[1]benzopyrano[3,4-f]quinoline] | 12.1 nM | 611 nM |
| C=CCC1Oc2ccc(OCC)c(OC)c2-c2ccc3c(c21)C(C)=CC(C)(C)N3 (centres unmarked) [Example 292, 10-Methoxy-9-ethoxy-5-(3-propenyl)-2,2,4-trimethyl-1H-2,5-dihydro-[1]benzopyrano[3,4-f]quinoline] | 487 nM | 8340 nM |
| C#CCOc1ccc2c(c1OC)-c1ccc3c(c1C(CC=C)O2)C(C)=CC(C)(C)N3 (centres unmarked) [Example 294, 10-Methoxy-9-(3-propynyloxy)-5-(3-propenyl)-2,2,4-trimethyl-1H-2,5-dihydro[1]benzopyrano[3,4-f]quinoline] | 13.8 nM | 1810 nM |
| C=CCC1Oc2ccc(OC(C)=O)c(OC)c2-c2ccc3c(c21)C(C)=CC(C)(C)N3 (centres unmarked) [Example 295, 2,5-Dihydro-9-acetoxy-10-methoxy-2,2,4-trimethyl-5-(2-propenyl)-1H-[1]benzopyrano[3,4-f]quinoline] | 0.67 nM | 59.3 nM |
| C=CCC1Oc2ccc(OC(=O)CCC(=O)N(C)C)c(OC)c2-c2ccc3c(c21)C(C)=CC(C)(C)N3 (centres unmarked) [Example 296, 2,5-Dihydro-9-(4-N,N-dimethylamino-4-oxo-butanoyloxy)-10-methoxy-2,2,4-trimethyl-5(2-propenyl)-1H-[1]benzopyrano[3,4-f]quinoline] | 0.63 nM | 476 nM |
| COc1ccc(Br)c2c1-c1ccc3c(c1C(C1C=CCCC1)O2)C(C)=CC(C)(C)N3 (centres unmarked) [Example 297] | 4.7 nM | 4840 nM |
| C=CCC1Oc2c(Br)ccc(OC)c2-c2ccc3c(c21)C(C)=CC(C)(C)N3 (centres unmarked) [Example 298, 10-Methoxy-7-bromo-5-(3-propenyl)-2,2,4-trimethyl-1H-2,5-dihydro-[1]benzopyrano[3,4-f]quinoline] | 4.1 nM | ≥ 10000 nM |
| COc1ccc(Br)c2c1-c1ccc3c(c1C(C1C=C(C)CCC1)O2)C(C)=CC(C)(C)N3 (centres unmarked) [Example 299] | 5.4 nM | 2900 nM |

From patent publication US6506766B1 (Abbott Laboratories, priority 1998, dated 2003)
